Experiments:
TrXyn2 = molecular target: T1, TrXyn2 (Trichoderma reesei, UniProt P36217); experiment: birch wood xylan hydrolysis yield, reducing sugars by PAHBAH; assay type: biochemical; conditions: tested at 10, 100 and 1000 µg/ml; 1% xylan, 50 mM Na-citrate pH 5, 40 or 50 °C
T1 construct: gene xyn2; natural single-domain GH11 enzyme, homologously produced and purified from T. reesei culture supernatant

TrXyn1 = molecular target: T2, TrXyn1 (Trichoderma reesei, UniProt P36218); experiment: as above; assay type: biochemical; conditions: tested at 10, 100 and 1000 µg/ml; 1% xylan, 50 mM Na-citrate pH 5, 40 or 50 °C; concentration of the printed value not given
T2 construct: gene xyn1; natural single-domain GH11 enzyme, homologously produced and purified from T. reesei culture supernatant
T2 sequence (P36218 52-229): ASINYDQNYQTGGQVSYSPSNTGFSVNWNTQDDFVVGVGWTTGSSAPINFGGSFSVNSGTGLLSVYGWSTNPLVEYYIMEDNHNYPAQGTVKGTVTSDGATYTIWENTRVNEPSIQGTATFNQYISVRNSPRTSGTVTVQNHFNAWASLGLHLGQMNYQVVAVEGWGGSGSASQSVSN

T1 sequence (P36217 34-223): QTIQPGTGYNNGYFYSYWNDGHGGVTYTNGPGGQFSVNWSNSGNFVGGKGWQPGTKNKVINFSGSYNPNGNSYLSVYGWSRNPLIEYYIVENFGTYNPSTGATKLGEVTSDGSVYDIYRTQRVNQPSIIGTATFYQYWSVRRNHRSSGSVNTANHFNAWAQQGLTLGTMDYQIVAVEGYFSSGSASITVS

SMILES: COc1cc(C=O)cc(OC)c1O [syringaldehyde]
- reduction in hydrolysis yield (TrXyn2): only syringaldehyde showed a clear inhibitory effect on the hydrolysis for all the tested xylanases
- % reduction in the hydrolysis yield (TrXyn1): 50%

Reference: paper PMC9107766, “Inhibitory effect of lignin on the hydrolysis of xylan by thermophilic and thermolabile GH11 xylanases” (Biotechnology for Biofuels and Bioproducts, 2022)
